Legend:
Assay type in all cases: biochemical, bacteriophage T7
[1] = target: T7 RNA polymerase variant G47A/P657W+C-terminal G (P657W), SEQ ID NO: 60 (Escherichia phage T7, UniProt P00573, G47A/P657W); experiment: GAG/e6A/m6A cap analog incorporation in IVT reactions, LC-MS % capped RNA (P657W); settings: 5 mM of each NTP
Procedure: (§1) In vitro transcription reactions were performed using DNA template, one of three cap analogs (GAG cap, m6A cap, and e6A cap) at varying concentrations, and (1) a G47A+C-terminal G RNA polymerase variant (control polymerase variant; G47A+C-terminal G), (2) a G47A/D506W+C-terminal G RNA polymerase variant (D506W), (3) a G47A/S628W+C-terminal G RNA polymerase variant (S628W), (4) a G47A/D653W+C-terminal G RNA polymerase variant (D653W), and (5) a G47A/P657W+C-terminal G RNA polymerase variant (P657W). IVT reactions using the m6A and e6A cap analogs were incorporated using a DNA template that encodes for a 5′A followed by G. Following the IVT reactions, each experiment was subjected to LC-MS to determine the % capped RNA (i.e., percent of transcribed RNA comprising a cap).
(§2) Conversely, even at 5 mM e6A, the control variant provided ˜40% of total RNA with incorporated e6A.
(§3) Conversely, even at 5 mM m6A, the control variant provided less than 30% of total RNA with incorporated m6A.

[2] = target: T7 RNA polymerase variant G47A/D653W+C-terminal G (D653W), SEQ ID NO: 59 (Escherichia phage T7, UniProt P00573, D653W/G47A); experiment: GAG/e6A/m6A/GGAG cap analog incorporation in IVT reactions, LC-MS % capped RNA (D653W)
T7 RNA polymerase variant G47A/D653W+C-terminal G (D653W), SEQ ID NO: 59, sequence (P00573 other isoform, or with tags, fused parts or gaps G47A/D653W): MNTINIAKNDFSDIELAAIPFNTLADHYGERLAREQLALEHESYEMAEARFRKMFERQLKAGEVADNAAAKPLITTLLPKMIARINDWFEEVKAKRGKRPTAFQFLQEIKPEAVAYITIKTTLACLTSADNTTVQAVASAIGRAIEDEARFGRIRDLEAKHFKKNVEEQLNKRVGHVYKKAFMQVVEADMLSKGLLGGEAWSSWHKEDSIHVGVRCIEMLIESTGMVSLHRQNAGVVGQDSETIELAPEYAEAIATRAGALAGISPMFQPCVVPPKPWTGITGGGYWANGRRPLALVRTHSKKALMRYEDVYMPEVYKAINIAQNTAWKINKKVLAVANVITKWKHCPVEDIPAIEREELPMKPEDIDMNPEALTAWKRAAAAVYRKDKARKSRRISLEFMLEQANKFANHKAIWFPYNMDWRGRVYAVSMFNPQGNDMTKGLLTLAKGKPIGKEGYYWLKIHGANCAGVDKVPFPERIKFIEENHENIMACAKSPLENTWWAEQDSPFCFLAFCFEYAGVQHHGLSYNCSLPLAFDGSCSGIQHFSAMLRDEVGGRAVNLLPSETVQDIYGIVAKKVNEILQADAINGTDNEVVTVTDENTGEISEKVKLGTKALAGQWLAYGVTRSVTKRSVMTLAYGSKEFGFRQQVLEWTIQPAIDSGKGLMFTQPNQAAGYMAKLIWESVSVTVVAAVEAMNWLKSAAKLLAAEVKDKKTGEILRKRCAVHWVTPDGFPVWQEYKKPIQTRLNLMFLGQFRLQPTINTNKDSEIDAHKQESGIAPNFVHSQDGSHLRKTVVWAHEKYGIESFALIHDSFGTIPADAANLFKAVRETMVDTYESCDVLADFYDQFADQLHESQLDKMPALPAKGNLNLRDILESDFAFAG
Procedure: as §1, §2, §3
Conversely, even at 7.5 mM GGAG tetranuc, the control variant provided less than 70% of total RNA with incorporated GGAG.

[3] = target: T7 RNA polymerase variant G47A/S628W+C-terminal G (S628W), SEQ ID NO: 58 (Escherichia phage T7, UniProt P00573, G47A/S628W); experiment: GAG/e6A/m6A cap analog incorporation in IVT reactions, LC-MS % capped RNA (S628W); settings: 5 mM of each NTP
T7 RNA polymerase variant G47A/S628W+C-terminal G (S628W), SEQ ID NO: 58, sequence (P00573 other isoform, or with tags, fused parts or gaps G47A/S628W): as the sequence (P00573 other isoform, or with tags, fused parts or gaps G47A/D653W) above, with S628W, W653D counted along it
Procedure: as §1, §2, §3

[4] = target: T7 RNA polymerase variant G47A/D506W+C-terminal G (D506W), SEQ ID NO: 57 (Escherichia phage T7, UniProt P00573, D506W/G47A); experiment: GAG/e6A/m6A cap analog incorporation in IVT reactions, LC-MS % capped RNA (D506W); settings: 5 mM of each NTP
T7 RNA polymerase variant G47A/D506W+C-terminal G (D506W), SEQ ID NO: 57, sequence (P00573 other isoform, or with tags, fused parts or gaps G47A/D506W): as the sequence (P00573 other isoform, or with tags, fused parts or gaps G47A/D653W) above, with D506W, W653D counted along it
Procedure: as §1, §2, §3

[5] = EC50 = concentration for 50% cap incorporation, vs G47A+C-terminal G

T7 RNA polymerase variant G47A/P657W+C-terminal G (P657W), SEQ ID NO: 60, sequence (P00573 other isoform, or with tags, fused parts or gaps G47A/P657W): as the sequence (P00573 other isoform, or with tags, fused parts or gaps G47A/D653W) above, with W653D, P657W counted along it

`CO[C@@H]1[C@H](OP(=O)(O)OC[C@H]2O[C@@H](n3cnc4c(=O)[nH]c(N)nc43)[C@H](O)[C@@H]2O)[C@@H](COP(=O)(O)OP(=O)(O)OP(=O)([O-])OC[C@H]2O[C@@H](n3c[n+](C)c4c(=O)[nH]c(N)nc43)[C@H](O)[C@@H]2O)O[C@H]1n1cnc2c(N)ncnc21` [GAG cap] was tested, and the “fold improvement (reduction) in EC50 for GAG cap incorporation, relative to the control variant” value [1, 5] was 2.27 fold, the “EC50 for GAG cap incorporation, relative to the control variant (in words)” value ([2]; 5 mM of each NTP, vs G47A+C-terminal G) was “significant improvement” and the “fold improvement (reduction) in EC50 for GAG cap incorporation, relative to the control variant” value ([2]; 7.5 mM of each NTP, FIG. 4E, vs G47A+C-terminal G) was 12.3 fold. For the same compound, the “fold improvement (reduction) in EC50 for GAG cap incorporation, relative to the control variant” value [3, 5] was 1.45 fold and the “fold improvement (reduction) in EC50 for GAG cap incorporation, relative to the control variant” value [4, 5] was 1.28 fold.

In the case of `CO[C@@H]1[C@H](OP(=O)(O)OC[C@H]2O[C@@H](n3cnc4c(N)ncnc43)[C@H](O)[C@@H]2OP(=O)(O)OC[C@H]2O[C@@H](n3cnc4c(=O)[nH]c(N)nc43)[C@H](O)[C@@H]2O)[C@@H](COP(=O)(O)OP(=O)(O)OP(=O)([O-])OC[C@H]2O[C@@H](n3c[n+](C)c4c(=O)[nH]c(N)nc43)[C@H](O)[C@@H]2O)O[C@H]1n1cnc2c(=O)[nH]c(N)nc21` [GGAG tetranuc], the “effective concentration of GGAG tetranuc cap analog for cap incorporation, relative to control variant (in words)” value ([2]; 7.5 mM of each NTP, FIG. 7) is reported as “lesser effective concentrations”.

For `CCNc1ncnc2c1ncn2[C@@H]1O[C@H](COP(=O)(O)OP(=O)(O)OP(=O)([O-])OC[C@H]2O[C@@H](n3c[n+](C)c4c(=O)[nH]c(N)nc43)[C@H](O)[C@@H]2O)[C@@H](OP(=O)(O)OC[C@H]2O[C@@H](n3cnc4c(=O)[nH]c(N)nc43)[C@H](O)[C@@H]2O)[C@H]1OC` [e6A cap, m^7Gpppe^6A2′OmepG], the “effective concentration of e6A cap analog for cap incorporation, relative to control variant (in words)” value ([1]; FIGS. 5A-5D) was “lesser effective concentrations”, the “effective concentration of e6A cap analog for cap incorporation, relative to control variant (in words)” value ([2]; 5 mM of each NTP, FIGS. 5A-5D) was “lesser effective concentrations” and the “effective concentration of e6A cap analog for cap incorporation, relative to control variant (in words)” value ([3]; FIGS. 5A-5D) was “lesser effective concentrations”. For the same compound, the “effective concentration of e6A cap analog for cap incorporation, relative to control variant (in words)” value ([4]; FIGS. 5A-5D) was “lesser effective concentrations”.

For `CNc1ncnc2c1ncn2[C@@H]1O[C@H](COP(=O)(O)OP(=O)(O)OP(=O)([O-])OC[C@H]2O[C@@H](n3c[n+](C)c4c(=O)[nH]c(N)nc43)[C@H](O)[C@@H]2O)[C@@H](OP(=O)(O)OC[C@H]2O[C@@H](n3cnc4c(=O)[nH]c(N)nc43)[C@H](O)[C@@H]2O)[C@H]1OC` [m6A cap, m^7Gpppm^6A2′OmepG], the “effective concentration of m6A cap analog for cap incorporation, relative to control variant (in words)” value ([1]; FIGS. 6A-6D) was “lesser effective concentrations”, the “effective concentration of m6A cap analog for cap incorporation, relative to control variant (in words)” value ([2]; 5 mM of each NTP, FIGS. 6A-6D) was “lesser effective concentrations” and the “effective concentration of m6A cap analog for cap incorporation, relative to control variant (in words)” value ([3]; FIGS. 6A-6D) was “lesser effective concentrations”. For the same compound, the “effective concentration of m6A cap analog for cap incorporation, relative to control variant (in words)” value ([4]; FIGS. 6A-6D) was “lesser effective concentrations”.

— patent publication US12180518B2, “RNA polymerase variants for co-transcriptional capping” (priority 2019, dated 2024)
